# Experimental data published in patent EP0162422A2, “The novel physiologically active substance foroxymithine, a process and microorganisms for its production and its use as medicament” (MICROBIAL CHEMISTRY RESEARCH FOUNDATION, priority 1984, dated 1985).
# Experiments:
# [1] = target: T1, angiotensin I converting enzyme (Bos taurus, UniProt P12820); assay: Anti-angiotensin I converting enzyme activity (modified Hayakari method, hippuryl-L-histidyl-L-leucine substrate, absorbance at 382 nm); assay type: biochemical, bovine; conditions: material from the purification steps of Examples 2 and 3; read-out: angiotensin I converting enzyme inhibitory activity (IC50) (converted)
# T1 construct: obtained from a bovine lung and partially purified; from tissue; host or cells: bovine lung
# T1 sequence (P12820 29-1306): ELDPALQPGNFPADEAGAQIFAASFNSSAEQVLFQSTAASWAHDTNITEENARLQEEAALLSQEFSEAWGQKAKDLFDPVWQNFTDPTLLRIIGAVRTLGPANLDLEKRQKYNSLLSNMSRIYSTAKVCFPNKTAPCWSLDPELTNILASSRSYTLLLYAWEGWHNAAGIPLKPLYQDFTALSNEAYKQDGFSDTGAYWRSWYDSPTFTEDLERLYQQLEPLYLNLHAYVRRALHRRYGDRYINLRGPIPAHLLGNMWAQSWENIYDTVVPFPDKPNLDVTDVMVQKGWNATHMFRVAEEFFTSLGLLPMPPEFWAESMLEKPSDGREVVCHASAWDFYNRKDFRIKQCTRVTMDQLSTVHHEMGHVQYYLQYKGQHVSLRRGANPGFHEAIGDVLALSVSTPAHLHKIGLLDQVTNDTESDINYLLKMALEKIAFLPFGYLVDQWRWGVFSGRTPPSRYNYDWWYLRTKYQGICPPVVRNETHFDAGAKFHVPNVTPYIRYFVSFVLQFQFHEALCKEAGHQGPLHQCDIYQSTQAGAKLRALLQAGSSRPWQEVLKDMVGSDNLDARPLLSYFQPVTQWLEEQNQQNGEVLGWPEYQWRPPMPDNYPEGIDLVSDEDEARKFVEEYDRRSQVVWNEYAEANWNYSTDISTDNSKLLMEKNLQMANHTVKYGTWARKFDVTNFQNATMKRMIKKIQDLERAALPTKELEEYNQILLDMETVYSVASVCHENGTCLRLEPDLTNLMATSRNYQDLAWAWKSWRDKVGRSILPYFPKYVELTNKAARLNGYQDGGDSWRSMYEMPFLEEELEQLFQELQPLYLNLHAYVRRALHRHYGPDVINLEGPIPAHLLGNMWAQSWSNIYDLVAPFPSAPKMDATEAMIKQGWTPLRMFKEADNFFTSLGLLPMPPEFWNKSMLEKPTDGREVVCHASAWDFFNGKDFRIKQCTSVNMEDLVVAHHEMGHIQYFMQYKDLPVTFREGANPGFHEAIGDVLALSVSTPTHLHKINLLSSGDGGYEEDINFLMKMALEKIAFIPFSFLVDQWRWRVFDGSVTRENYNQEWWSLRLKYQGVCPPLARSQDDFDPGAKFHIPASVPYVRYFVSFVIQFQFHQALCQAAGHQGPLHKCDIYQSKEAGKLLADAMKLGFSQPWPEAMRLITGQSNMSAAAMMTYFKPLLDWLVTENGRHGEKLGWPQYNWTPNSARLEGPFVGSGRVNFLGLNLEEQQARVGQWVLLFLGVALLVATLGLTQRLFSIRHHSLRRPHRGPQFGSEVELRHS
# Protocol: Follow-up of foroxymithine during the cultivation step and the purification step was performed in accordance with the determination of anti-angiotensin I converting enzyme activity by the method to be described below.
# Anti-angiotensin I converting enzyme activity was determined by a modification of the angiotensin I converting enzyme determination technique described in M. Hayakari et al., Analytical Biochemistry Vol. 84, pages 361-369 (1978). Hippuryl-L-histidyl-L-leucine as a substrate was dissolved at a concentration of 5 mg/ml in Tris-hydrochloride buffer (0.5M, pH 8.0) containing 0.3M sodium chloride. 0.40 ml of a solution containing a test material was added to 0.05 ml of the resulting solution. The mixture was heated at 37'C for 3 minutes. Then, 0.05 ml of a solution containing angiotensin I converting enzyme that had been obtained from a bovine lung and partially purified was added, and the mixture was reacted for 30 minutes at 37.C. […] After the system was allowed to stand for 15 minutes at room temperature, its absorbance (termed absorbance (a)) at 382 nm was measure. […] The reaction system as the control was measured for absorbance, which was termed absorbance (b). The angiotensin I converting enzyme inhibition rate (%) was calculated from the equation (b-a)/b x 100. […]
# [2] = system: spontaneous hypertensive rats (SH rats); assay: Effect on blood pressure in spontaneous hypertensive rats after oral administration; assay type: in vivo
# Protocol: This Example illustrates the effect of foroxymithine on blood pressure in spontaneous hypertensive rats (SH rate).
# SH rats weighing 320 to 358 g were orally administered foroxymithine dihydrate as an aqueous solution at do- see of 12.5, 25 and 50 mg/kg. After the administration, blood pressure was measured at certain time intervals. Changes in blood pressure in the foroxymithine- administered group were compared with those in the control group orally administered distilled water only.
# mice = assay: Acute toxicity studies in mice; assay type: in vivo; conditions: 800 mg/kg i.v.
# From the text: Foroxymithine is therefore a low-toxicity substance.
# [3] = oral dose 12.5 mg/kg, 1 hour after administration
# [4] = oral dose 12.5 mg/kg, 3 hours after administration
# [5] = oral dose 12.5 mg/kg, 6 hours after administration
# [6] = oral dose 12.5 mg/kg, 24 hours after administration
# [7] = oral dose 50.0 mg/kg, 1 hour after administration
# [8] = oral dose 50.0 mg/kg, 3 hours after administration
# [9] = oral dose 50.0 mg/kg, 6 hours after administration
# [10] = oral dose 50.0 mg/kg, 24 hours after administration
smiles,measurement,setting,value
"CC(=O)NC(CCCN(O)C=O)C(=O)NC(CO)C(=O)N(O)CCCC1NC(=O)C(CCCN(O)C=O)NC1=O (stereo not drawn) [Foroxymithine dihydrate, foroxymithine]",IC50,[1],12.2 µM
same,Mean blood pressure ± S.D.,[2]; [3],180 ± 0.7 mmHg
same,decrease in blood pressure,[2]; [3],14.3%
same,Mean blood pressure ± S.D.,[2]; [4],190 ± 28.2 mmHg
same,decrease in blood pressure,[2]; [4],9.5%
same,Mean blood pressure ± S.D.,[2]; [5],200 ± 14.1 mmHg
same,decrease in blood pressure,[2]; [5],4.8%
same,Mean blood pressure ± S.D.,[2]; [6],210 ± 14.1 mmHg
same,decrease in blood pressure,[2]; [6],0%
same,Mean blood pressure ± S.D.,"[2]; oral dose 12.5 mg/kg, before administration",210 ± 0.7 mmHg
same,Mean blood pressure ± S.D.,[2]; [7],160 ± 7.0 mmHg
same,decrease in blood pressure,[2]; [7],23.8%
same,Mean blood pressure ± S.D.,[2]; [8],153 ± 3.5 mmHg
same,decrease in blood pressure,[2]; [8],27.1%
same,Mean blood pressure ± S.D.,[2]; [9],193 ± 10.6 mmHg
same,decrease in blood pressure,[2]; [9],8.1%
same,Mean blood pressure ± S.D.,[2]; [10],213 ± 3.5 mmHg
same,decrease in blood pressure,[2]; [10],-1.4%
same,Mean blood pressure ± S.D.,"[2]; oral dose 50.0 mg/kg, before administration",210 ± 0.0 mmHg
same,effect on blood pressure,"[2]; spontaneous hypertensive rats (SH rats), oral, conclusion in words",lower blood pressure
same,deaths (acute toxicity),mice,no deaths
